These results are taken from ChEMBL document CHEMBL1201862, “PubChem BioAssay data set” (2004).

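Results reflect a 48-hour exposure of cells in 96-well plates to compound at five concentrations. GI50 = concentration required for 50% inhibition of growth.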 Active and inactive are the calls of the source. Rule as the data show it: active = GI50 up to about 1.1 µM and inactive = higher. A value given as a limit tells only on which side of the number the result lay.

Some test systems named below: OVCAR-4; SW-620; COLO 205; SNB-75; CCRF-CEM; SK-MEL-2; 786-0; TK-10; HCT-15; SF-268; PC-3; Hs-578T; SNB-19; NCI-H226; SF-295; A498; MOLT-4; MDA-N; KM12.
Holding throughout (assay): NCI anticancer screen, dose series, 48 h

As for `NC(=O)[C@H](Cc1ccc(O)cc1)NC1=C(Cl)C(=O)c2c(O)ccc(O)c2C1=O`, the GI50 in the assay on OVCAR-4 was 1.83 µM (inactive); in the assay with SW-620 it was 1.06 µM (active); with COLO 205 it was 1.5 µM (inactive); with SNB-75 it was 4.93 µM (inactive); in the assay with CCRF-CEM, 0.241 µM (active); in the assay on SK-MEL-2, 9.02 µM (inactive). Further, the GI50 in the assay on 786-0 is 2.02 µM (inactive); with TK-10 it was 2.72 µM (inactive); with HCT-15 it was 1.79 µM; in the assay on SF-268, 3.7 µM (inactive); in the assay with PC-3 it was 2.24 µM (inactive); with Hs-578T, 3.71 µM (inactive). For the same compound, the GI50 with SNB-19 is > 10 µM (inactive); with NCI-H226, > 10 µM (inactive); with SF-295 it was > 10 µM (inactive); in the assay on A498, 4.4 µM (inactive); in the assay on MOLT-4, 0.55 µM (active); with MDA-N, 1.93 µM (inactive). For the same compound, the GI50 with KM12 was 2.67 µM (inactive).
Consider `CCOP(=O)(OCC)C1CC(O)CN1OC(=O)C(C)(C)C` (centres undefined), for which the GI50 in the assay with OVCAR-4, in the assay on SW-620, in the assay with COLO 205, in the assay with SNB-75, with CCRF-CEM and in the assay with SK-MEL-2 was > 100 µM (inactive) throughout. The GI50 in the assay on 786-0 is > 100 µM (inactive); with TK-10, > 100 µM (inactive); with HCT-15, greater than 100 µM; in the assay on SF-268, > 100 µM (inactive); in the assay with PC-3, > 100 µM (inactive); in the assay on Hs-578T it was > 100 µM (inactive). For the same compound, the GI50 in the assay on SNB-19, in the assay on NCI-H226, with SF-295, in the assay with A498, in the assay on MOLT-4 and with MDA-N was > 100 µM (inactive) throughout. The GI50 in the assay with KM12 was > 100 µM (inactive).
As for `O=C(/C=C/c1cccc(Br)c1)c1ccc(Cl)cc1`, the GI50 was 4.36 µM (inactive) in the assay with OVCAR-4; 2.95 µM (inactive) with SW-620; 17.2 µM (inactive) in the assay on COLO 205; 13.6 µM (inactive) with SNB-75; 4.5 µM (inactive) in the assay with CCRF-CEM; 15.3 µM (inactive) in the assay on SK-MEL-2. Also, the GI50 is 14.3 µM (inactive) with 786-0; 13 µM (inactive) with TK-10; 14.8 µM in the assay with HCT-15; 17.5 µM (inactive) in the assay with SF-268; 15 µM (inactive) in the assay with PC-3; 22.7 µM (inactive) in the assay with Hs-578T. In addition, the GI50 with SNB-19 is 16.3 µM (inactive); in the assay on NCI-H226, 18.8 µM (inactive); in the assay with SF-295, 17.5 µM (inactive); in the assay on A498, 13.3 µM (inactive); with MOLT-4, 5.93 µM (inactive); in the assay with MDA-N it was 6.32 µM (inactive). In addition, the GI50 with KM12 was 11.8 µM (inactive).
On to `O=C1C(O)=C(C(C2=C(O)C(=O)c3ccccc3C2=O)c2ccc(Cl)cc2)C(=O)c2ccccc21`, for which the GI50 in the assay with OVCAR-4 was 6.24 µM (inactive); in the assay on SW-620, 4.69 µM (inactive); with COLO 205, 18.6 µM (inactive); in the assay with SNB-75, 2.5 µM (inactive); with CCRF-CEM, 6.4 µM (inactive); with SK-MEL-2 it was 8.36 µM (inactive). The GI50 was 3.33 µM (inactive) with 786-0; 14.7 µM (inactive) with TK-10; 9.12 µM in the assay on HCT-15; 10.4 µM (inactive) in the assay on SF-268; 18.8 µM (inactive) in the assay with PC-3; 14.7 µM (inactive) in the assay with Hs-578T. The GI50 in the assay on SNB-19 is 19.5 µM (inactive); with NCI-H226 it was 28.9 µM (inactive); in the assay with SF-295, 5.78 µM (inactive); in the assay on A498, 18.4 µM (inactive); with MOLT-4, 4.56 µM (inactive); in the assay with MDA-N, 1.83 µM (inactive). For the same compound, the GI50 with KM12 is 8.97 µM (inactive).
For `NC(=S)N1N=C(c2ccccc2O)CC1c1ccccc1` (centres undefined), the GI50 was 18.2 µM (inactive) in the assay on OVCAR-4; 9.59 µM (inactive) in the assay with SW-620; 8.97 µM (inactive) in the assay on COLO 205; 16.9 µM (inactive) in the assay with SNB-75; 7.94 µM (inactive) in the assay with CCRF-CEM; 5.25 µM (inactive) with SK-MEL-2. The GI50 was 21.1 µM (inactive) in the assay with 786-0; 20.1 µM (inactive) with TK-10; 5.62 µM with HCT-15; 20.8 µM (inactive) with SF-268; 5.24 µM (inactive) in the assay on PC-3; 20.7 µM (inactive) in the assay on Hs-578T. The GI50 in the assay on SNB-19 is 23.3 µM (inactive); in the assay with NCI-H226, 15 µM (inactive); in the assay with SF-295, 6.43 µM (inactive); in the assay on A498 it was 11.9 µM (inactive); with MOLT-4, 8.04 µM (inactive); in the assay on MDA-N, 2.83 µM (inactive). Moreover, in the assay with KM12, the GI50 is 7.4 µM (inactive).
Take `O=C(/N=S(/NC(=O)c1ccccc1)C(Cl)(Cl)Cl)c1ccccc1` (centres undefined): the GI50 in the assay with OVCAR-4 was 17.4 µM (inactive); with SW-620 it was 3.57 µM (inactive); in the assay on COLO 205, 14.8 µM (inactive); in the assay on SNB-75, 40.6 µM (inactive); in the assay with CCRF-CEM it was 2.7 µM (inactive); with SK-MEL-2, 31.9 µM (inactive). In addition, the GI50 in the assay with 786-0 is 28.1 µM (inactive); in the assay with TK-10, > 100 µM (inactive); in the assay with HCT-15, 8.59 µM; in the assay on SF-268, 50.2 µM (inactive); in the assay with PC-3 it was 46.2 µM (inactive); in the assay with Hs-578T, 40.6 µM (inactive). The GI50 with SNB-19 is 51.2 µM (inactive); in the assay on NCI-H226, 25.6 µM (inactive); in the assay on SF-295, 9.25 µM (inactive); in the assay on A498 it was 27 µM (inactive); in the assay with MOLT-4, 6.97 µM (inactive); in the assay with MDA-N, 29.8 µM (inactive). The GI50 in the assay with KM12 is > 65 µM (inactive).
Turning to `O=C(Nc1ccc(Cl)cc1)NS(=O)(=O)c1coc2ccccc2c1=O`, the GI50 in the assay on OVCAR-4, in the assay on SW-620, with COLO 205, in the assay with SNB-75, in the assay with CCRF-CEM and in the assay with SK-MEL-2 was > 10 µM (inactive) throughout. For the same compound, the GI50 with 786-0 is > 10 µM (inactive); in the assay with TK-10 it was > 10 µM (inactive); in the assay with HCT-15 it was greater than 10 µM; in the assay with SF-268 it was > 10 µM (inactive); in the assay on PC-3 it was > 10 µM (inactive); in the assay with Hs-578T it was > 10 µM (inactive). Besides, the GI50 with SNB-19, with NCI-H226, with SF-295, in the assay on A498, in the assay with MOLT-4 and in the assay with MDA-N was > 10 µM (inactive) in each case. For the same compound, the GI50 with KM12 is > 10 µM (inactive).
In the case of `COc1ccc(N2C(=O)C3c4[nH]c5ccccc5c4C4C(C)CCCC4C3C2=O)cc1` (centres undefined), the GI50 in the assay with OVCAR-4 is 33.7 µM (inactive); in the assay with SW-620, > 53 µM (inactive); in the assay on COLO 205, > 50.7 µM (inactive); in the assay on SNB-75, 19.7 µM (inactive); with CCRF-CEM it was 5.66 µM (inactive); in the assay on SK-MEL-2 it was 44.6 µM (inactive). The GI50 was 17.5 µM (inactive) in the assay with 786-0; > 88.3 µM (inactive) with TK-10; greater than 34 µM in the assay on HCT-15; 41 µM (inactive) in the assay on SF-268; 17.7 µM (inactive) in the assay with PC-3; 19.8 µM (inactive) in the assay on Hs-578T. Moreover, the GI50 was > 44.6 µM (inactive) in the assay on SNB-19; 41.3 µM (inactive) in the assay on NCI-H226; 16.4 µM (inactive) in the assay on SF-295; 45.5 µM (inactive) in the assay on A498; 7.21 µM (inactive) with MOLT-4; 3.19 µM (inactive) in the assay on MDA-N. Besides, the GI50 with KM12 is 13.8 µM (inactive).
Take `CC(CC[C@@H](O)C(C)(C)O)C1[C@@H](O)CC2(C)C3CC(O)C4C(C)(C)[C@@H](OC5OC(CO)C(O)C(O)C5O)CC[C@@]45C[C@@]35CC[C@]12C` (some centres undefined): the GI50 in the assay on OVCAR-4, in the assay on SW-620, with COLO 205, in the assay with SNB-75, in the assay on CCRF-CEM and in the assay with SK-MEL-2 was > 10 µM (inactive) each time. In addition, the GI50 with 786-0 is > 10 µM (inactive); with TK-10 it was > 10 µM (inactive); in the assay on HCT-15 it was greater than 10 µM; with SF-268 it was > 10 µM (inactive); in the assay with PC-3, > 10 µM (inactive); in the assay on Hs-578T it was > 10 µM (inactive). The GI50 was > 10 µM (inactive) with SNB-19; 8.79 µM (inactive) in the assay with NCI-H226; > 10 µM (inactive) with SF-295; > 10 µM (inactive) with A498; > 10 µM (inactive) in the assay on MOLT-4; > 10 µM (inactive) in the assay with MDA-N. Moreover, the GI50 in the assay on KM12 was > 10 µM (inactive).
As for `Nc1nc(-c2ccccc2)cc(-c2ccc(OCc3ccccc3)cc2O)n1`, the GI50 in the assay on OVCAR-4 is 71.6 µM (inactive); with SW-620, 39.4 µM (inactive); with COLO 205, 45.7 µM (inactive); in the assay with SNB-75, 67.6 µM (inactive); with CCRF-CEM, 17 µM (inactive); in the assay on SK-MEL-2, 32.4 µM (inactive). Besides, the GI50 in the assay with 786-0 is 40.9 µM (inactive); in the assay on TK-10, 24.7 µM (inactive); in the assay on HCT-15, 32.2 µM; with SF-268 it was 44.3 µM (inactive); in the assay on PC-3, 34.4 µM (inactive); in the assay on Hs-578T, 37.1 µM (inactive). In addition, the GI50 was 50.2 µM (inactive) in the assay on SNB-19; 46.1 µM (inactive) in the assay with NCI-H226; 36.4 µM (inactive) with SF-295; 60.3 µM (inactive) with A498; 48.4 µM (inactive) with MOLT-4; 39.3 µM (inactive) in the assay with MDA-N. For the same compound, the GI50 in the assay on KM12 is 34.4 µM (inactive).
Take `CSc1ccc2c(c1)C(N1CCN(C)CC1)Cc1ccccc1S2` (centres undefined): the GI50 in the assay on OVCAR-4 is 2.3 µM (inactive); in the assay on SW-620 it was 6.01 µM (inactive); in the assay with COLO 205, 1.98 µM (inactive); in the assay with SNB-75, < 0.01 µM (active); in the assay on CCRF-CEM, 0.219 µM (active); in the assay on SK-MEL-2, 2.72 µM (inactive). Besides, the GI50 was 4.47 µM (inactive) in the assay with 786-0; 3.35 µM (inactive) in the assay on TK-10; 4.15 µM with HCT-15; 3.43 µM (inactive) in the assay with SF-268; 4.3 µM (inactive) in the assay on PC-3; 4.4 µM (inactive) in the assay with Hs-578T. Moreover, the GI50 is 13.3 µM (inactive) in the assay with SNB-19; 7.8 µM (inactive) with NCI-H226; 3.83 µM (inactive) with SF-295; 9.79 µM (inactive) in the assay with A498; 2.47 µM (inactive) with MOLT-4; 3.07 µM (inactive) in the assay with MDA-N. Further, the GI50 in the assay on KM12 was 2.62 µM (inactive).
